Data as given in patent US20110059070A1, “Combination therapy for tumoral desease treatment” (Ramot At Tel Aviv University Ltd., priority 2006, published 2011).
Like-named read-outs stand apart in the source and are kept apart here.

Columns and labels:
[1] = test system: K562 cells; experiment: Complement-mediated lysis of K562 cells (Trypan blue inclusion); type: cell-based, human; details: for effect on complement-mediated lysis (percent cell lysis): K562 cells pretreated 60 minutes at 37° C. at different concentrations, then anti-K562 antibodies and NHS, Trypan Blue
Description: FIG. 1 is a histogram depicting the sensitization of cells to complement mediated lysis by MKT-077. K562 cells were pretreated for 1 hour at 37° C. with increasing concentrations of MKT-077 [or double distilled water (DDW); NT] and then treated with a sublytic dose of anti-K562 antibody (1:14) and complement [Normal human serum (NHS)] or heat-inactivated NHS (HI-NHS). After incubation for 1 hour at 37° C., percent cell lysis was measured with 0.2% Trypan Blue. Results present the percentage of cell lysis and are representative of four independent experiments. P<0.01 between NT group and the other groups.
K562 cells were treated for 60 minute at 37° C. with different concentrations of MKT-077 or Rhodamine123 (Rho123), followed by treatment for another 60 minutes with anti-K562 antibodies and NHS or HI-NHS and the cell lysis was measured by Trypan blue inclusion. Results are representative of three independent experiments. *P<0.05, between cells treated with NHS and MKT-077 and cells treated with NHS without MKT-077.
(§1) Cell lysis and collection of secreted vesicles—Cytotoxicity assay was performed as described before [Reiter, Y. and Z. Fishelson, Complement membrane attack complexes induce in human leukemic cells rapid expression of large proteins (L-CIP). Mol Immunol, 1992. 29(6): p. 771-81]. […] Cell lysis was determined by Trypan blue inclusion. Statistical significance was analyzed by using the two-sided unpaired Student's t-test. […]
MKT-077 sensitizes cells to complement-mediated lysis—Human K562 erythroleukemia cells were pretreated for 60 minutes at 37° C. with MKT-077, at different concentrations, and then the cells were treated for additional 60 minutes at 37° C. with anti-K562 antibodies for 30 minutes on ice and with complement (NHS) or heat-inactivated NHS (HI-NHS) as control. Finally, cells were washed and percent cell lysis was quantified by Trypan Blue inclusion. […]

[2] = test system: K562 cells; experiment: Release of mortalin and C9 by vesiculation after complement attack (Western blot); type: cell-based, human; details: K562 cells pretreated 1 hour with 200 μM or 50 μM, sublytic anti-K562 antibodies and NHS
Description: K562 cells pretreated with 50 μM MKT-077 (or with double distilled water) were treated for 10 minutes at 37° C. with a sublytic dose of anti-K562 antibody and NHS or HI-NHS. Then, the cells were washed 4 times with Hank's Balanced Salt Solution (HBSS; Sigma, Rehovot, Israel), incubated for 10 minutes at 37° C. and supernatant were collected. Released proteins were first sedimented at 5,000 g for 15 minutes and then centrifuged at 100,000 g for 30 minutes for vesicles isolation. High-speed supernatant and pellets were analyzed by SDS-PAGE and Western Blotting with anti-mortalin (FIG. 2a) or anti-C9 (FIG. 2b) antibodies. Results are representative of three independent experiments.
as §1
Protein analysis—Protein concentration was analyzed with the BCA Protein Assay Kit (Pierce, Rockford, Ill., USA). […]

[3] = test system: HCT116 colon carcinoma cell line (HCT) p53 +/+ and HCT p53 −/− cells; experiment: Complement-mediated lysis of HCT p53 +/+ and HCT p53 −/− cells; type: cell-based; details: HCT p53 +/+ versus HCT p53 −/− cells
Description: FIG. 3 is a histogram depicting that the effect of MKT-077 on complement-mediated lysis is p53-independent. HCT116 colon carcinoma cell line (HCT) p53 +/+ and HCT p53 −/− cells were pretreated for 1 hour at 37° C. with 50 μM MKT-077 and then treated with a lytic dose of anti-K562 antibody (1:9) and NHS or HI-NHS. After incubation for 1 hour at 37° C., percent cell lysis was measured by Trypan blue inclusion. Results present the percentage of cell lysis and are representative of three independent experiments.
Cell lysis and collection of secreted vesicles—Cytotoxicity assay was performed as described before [Reiter, Y. and Z. Fishelson, Complement membrane attack complexes induce in human leukemic cells rapid expression of large proteins (L-CIP). Mol Immunol, 1992. 29(6): p. 771-81]. Briefly, for a cell lysis assay, cells were incubated with diluted anti-K562 antiserum for 30 minutes at 4° C. and then with complement [NHS or heat-inactivated normal human serum (HI-NHS), 50%] for 60 minutes at 37° C. Cell lysis was determined by Trypan blue inclusion. Statistical significance was analyzed by using the two-sided unpaired Student's t-test. […]
The effect of MKT-077 on complement-mediated lysis is p53-independent—MKT-077 is known to prevent the binding of mortalin to p53 (Wadhwa et al. Cancer Res. 15: 6818-6821, 2000). […] After 60 minutes at 37° C., percent lysis was measured.

[4] = test system: K562 cells; experiment: SLO-mediated lysis of K562 cells; type: cell-based, human; details: K562 pretreated 1 hour with 50 μM, then 900 and 1200 units ml^−1 SLO, 15 minutes at 37° C.
Description: (§2) FIG. 4a—K562 cells were pretreated for 1 hour at 37° C. with 50 μM MKT-077 and then treated with 900 and 1200 units ml^−1 SLO or with DTT as control. After 15 minutes at 37° C., cell lysis was measured by Trypan blue inclusion. Results are representative of three independent experiments. FIG. 4b—K562 cells were treated for 1 hour at 37° C. with increased concentrations of A23187 and with 50 μM MKT-077. Cell lysis was then measured by Trypan blue inclusion. Results present the percentage of cell lysis and are representative of three independent experiments.
(§3) MKT-077 has no effect on SLO-mediated lysis and A23187-mediated lysis—The present inventors have further addressed the question of specificity of the effect of MKT-077 on cell death. The effect of MKT-077 on cell death induced by Streptolysin O (SLO), another cytolytic pore-forming protein, was examined. Cells were pretreated with MKT-077 and then treated with several doses of SLO or with dithiothreitol (DTT) as control. Lysis was measured after 15 minutes incubation at 37° C. Results presented in FIG. 4a show no effect of MKT-077 on SLO-mediated lysis. The present inventors have further examined the effect of MKT-077 on cell death induced by the Ca^+2 ionophore A23187. […] Next, the cells were washed and percent cell death was measured.

[5] = test system: K562 cells; experiment: A23187-mediated lysis of K562 cells; type: cell-based, human; details: K562 treated 1 hour at 37° C. with increased concentrations of A23187 and 50 μM MKT-077
Description: as §2, §3

[6] = target: T1, mortalin binding to C9 (Homo sapiens, UniProt P38646); experiment: Binding of mortalin to complement C9 (ELISA); details: K562 cell lysate with or without 50 μM MKT-077 on C9-coated wells; P<0.005
T1 construct: incubated with K562 lysates (source for mortalin), with or without MKT-077; endogenous in cells; host or cells: K562 cell lysate
T1 sequence (P38646 47-679): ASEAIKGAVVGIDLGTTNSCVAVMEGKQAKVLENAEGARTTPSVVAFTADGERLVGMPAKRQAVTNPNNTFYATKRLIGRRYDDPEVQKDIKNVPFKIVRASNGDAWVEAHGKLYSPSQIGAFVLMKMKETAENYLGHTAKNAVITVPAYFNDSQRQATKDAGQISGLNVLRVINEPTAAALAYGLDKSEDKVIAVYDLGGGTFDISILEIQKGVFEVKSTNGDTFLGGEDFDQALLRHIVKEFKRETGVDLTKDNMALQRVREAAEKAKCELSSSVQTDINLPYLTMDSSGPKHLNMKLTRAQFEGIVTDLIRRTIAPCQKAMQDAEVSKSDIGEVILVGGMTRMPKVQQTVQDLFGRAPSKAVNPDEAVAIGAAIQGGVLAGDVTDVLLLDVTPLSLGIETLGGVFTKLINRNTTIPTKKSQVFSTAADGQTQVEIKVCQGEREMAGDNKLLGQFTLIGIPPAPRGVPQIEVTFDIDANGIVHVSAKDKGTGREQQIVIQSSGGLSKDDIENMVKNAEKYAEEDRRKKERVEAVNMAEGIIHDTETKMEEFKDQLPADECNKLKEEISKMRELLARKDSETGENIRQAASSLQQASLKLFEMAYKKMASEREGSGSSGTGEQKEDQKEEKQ
Description: FIG. 5 is a histogram depicting the interference of MKT-077 with binding of mortalin to C9. Microtiter plate wells were coated overnight with C9 or BSA (0.5 μg per well) and then incubated with K562 cell lysate (40×10^6 cells ml^−1 lysis buffer) diluted 1:25 with or without 50 μM MKT-077. The wells were washed and treated with anti-mortalin antibody and peroxidase-labeled second antibody, developed with o-phenilenediamine (OPD) and analyzed in an ELISA reader. Results present the quantity of mortalin in each experimental group and are representative of three independent experiments. *,P<0.005 between groups with and without MKT-077.
Binding of mortalin to complement C9—Binding of mortalin to the complement C9 protein was examined by ELISA analysis. In brief, purified human C9 and BSA (0.5 μg per well each) were bound overnight at 4° C. to a 96-well Enzyme Immunoassay (EIA) plate (Corning, N.Y., USA). Diluted cell lysate prepared from 40×10^6 K562 cells as described above was added to each well for 60 minutes at 37° C. After washes, monoclonal mouse anti-mortalin antibody (diluted 1:500) was added for 30 minutes at 37° C. and then peroxidase-conjugated goat anti-mouse IgG was added for 30 minutes at room temperature. Next, o-phenylenediamine (Sigma) was added and the plate was examined in a Spectrafluor Plus plate reader (Tecan, Austria) at 450 nm. […]

[7] = cited from earlier work
[8] = cited from earlier work; remark: listed apart in the source
[9] = test system: human tumor cells; details: human tumor cells tested; cited from earlier work
[10] = bolus dose (30 minutes i.v. infusion) 126 mg/m^2/week X 4 weeks every 6 weeks

Compound | effect on complement-mediated lysis (percent cell lysis) [1] | mortalin dependence of the effect on complement-mediated lysis ([1]; data not shown) | release of C9 by vesiculation ([2]; Western blot anti-C9) | release of mortalin by vesiculation ([2]; Western blot anti-mortalin) | p53 dependence of the complement sensitization effect [3] | effect on SLO-mediated lysis [4] | effect on A23187-mediated lysis [5] | ability of mortalin to bind C9 [6] | toxicity ([7]; cancer patients, continuous i.v. infusion 150 mg/m^2/five days (30 mg/m^2, day, for 5 days)) | toxicity ([7]; five-day infusion (30-50 mg/m^2/day) once every three weeks, chemo-resistant solid tumors) | associated toxicity [8, 10] | plasma concentrations [8, 10] | tolerability [8, 10] | toxicity ([8]; single bolus weekly infusion (42 mg/m^2) for 4 weeks every 6 weeks) | IC50 concentrations required in vitro [9]
CCn1c(=Cc2cccc[n+]2CC)sc(=C2Sc3ccccc3N2C)c1=O.[Cl-] [MKT-077] | significantly enhances killing | mortalin-dependent | inhibited | inhibited | presence or absence of p53 had no effect | no effect | no effect | significant decrease | renal toxicity | renal toxicity | hypomagnesemia (kidney toxicity) | 1.2-6.3 microgram/ml | well tolerated | manageable hypomagnesemia | 0.15-0.5 microgram/ml
Rhodamine123 | no effect |  |  |  |  |  |  |  |  |  |  |  |  |  | 
